Assay [1] has as its system LTB4 production in murine blood (LTA4H). Briefly: LTB4 production by calcium ionophore-stimulated murine blood for LTA4H inhibitor activity. The format is cell-based, CD-1 mice. The settings on record: Mus musculus; murine blood diluted 1 in 15, A23187 stimulated; single determination or average; mark after value = form tested: ′ free base, ″ hydrochloride, ^ formate; read-out: IC50. In short, it runs like this: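 Heparinized blood from CD-1 mice was preincubated with compound for 15 min at 37° C, then stimulated with calcium ionophore A23187 (final 7 μg/mL) for 30 min. Centrifugation stopped the reaction, and LTB4 in the supernatant was measured by enzyme immunoassay. Values are single determinations or means of two or more.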

Assay [2] deals with T1, recombinant human LTA4 hydrolase (rhLTA4H) (Homo sapiens, UniProt P09960).
T1 construct: made in house; host or cells: Spodoptera frugiperda (Sf-9) cells, baculovirus (pFastBac1)
T1 sequence (P09960 1-611): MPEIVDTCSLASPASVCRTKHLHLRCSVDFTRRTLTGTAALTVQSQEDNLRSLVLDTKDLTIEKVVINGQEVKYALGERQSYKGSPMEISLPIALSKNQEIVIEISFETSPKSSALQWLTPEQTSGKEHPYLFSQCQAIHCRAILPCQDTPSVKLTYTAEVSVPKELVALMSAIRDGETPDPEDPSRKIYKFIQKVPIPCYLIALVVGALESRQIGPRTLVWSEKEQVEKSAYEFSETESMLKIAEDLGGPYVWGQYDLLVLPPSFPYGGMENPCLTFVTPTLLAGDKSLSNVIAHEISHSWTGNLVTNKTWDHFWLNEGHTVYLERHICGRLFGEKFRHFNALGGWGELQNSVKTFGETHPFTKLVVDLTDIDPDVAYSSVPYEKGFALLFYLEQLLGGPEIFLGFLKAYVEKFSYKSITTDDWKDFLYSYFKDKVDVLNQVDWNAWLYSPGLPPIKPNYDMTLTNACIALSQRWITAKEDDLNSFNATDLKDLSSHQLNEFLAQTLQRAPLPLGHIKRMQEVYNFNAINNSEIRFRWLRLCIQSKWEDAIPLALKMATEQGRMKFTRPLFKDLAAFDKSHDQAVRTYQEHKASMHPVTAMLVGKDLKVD
Briefly: Recombinant human LTA4 hydrolase assay for LTA4 hydrolase inhibitor activity. The format is biochemical. The settings on record: rhLTA4H, LTB4 by immunoassay; single determination or average of two or more; mark after value = form tested: ′ free base, ″ hydrochloride, ^ formate; read-out: IC50. In short, it runs like this:
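Baculovirus/Sf-9-expressed human LTA4H (10 ng) was preincubated 10 min at rt with compound in assay buffer (10% DMSO in compound dilution), then reacted 30 min at rt with LTA4 free acid made from its methyl ester. LTB4 produced was measured by ELISA after dilution; IC50 from non-linear regression, single or averaged determinations.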

Where a name gives a salt, the structure may show the parent alone.

26 compounds from patent US8399465B2, “Compounds with two fused bicyclic heteroaryl moieties as modulators of leukotriene A4 hydrolase” (Janssen Pharmaceutica NV, priority 2009, dated 2013) can be followed below.

Take `CC(=O)N(C(C)C)C1CCN(Cc2coc3cc(Oc4nc5ncccc5s4)ccc23)CC1` [Example 323, N-Isopropyl-N-{1-[6-(thiazolo[4,5-b]pyridin-2-yloxy)-benzofuran-3-ylmethyl]-piperidin-4-yl}-acetamide]: the IC50 in assay [1] was determined as 41 nM; in assay [2], 9 nM.
As to `CN1CCN(C(=O)C2CCN(Cc3c[nH]c4cc(Oc5nc6ccccc6s5)ccc34)CC2)CC1` [Example 26, {1-[6-(Benzothiazol-2-yloxy)-1H-indol-3-ylmethyl]-piperidin-4-yl}-(4-methyl-piperazin-1-yl)-methanone], the half-maximal inhibitory concentration (IC50) in assay [1] was determined as 188 nM; in assay [2], 7 nM.
The matching figures for `O=C(c1cnccn1)N1C[C@@H]2C[C@H]1CN2Cc1coc2cc(Oc3nc4ncccc4s3)ccc12` [Example 356, (1S,4S)-Pyrazin-2-yl-{5-[6-(thiazolo[4,5-b]pyridin-2-yloxy)-benzofuran-3-ylmethyl]-2,5-diaza-bicyclo[2.2.1]hept-2-yl}-methanone]: 260 nM and 18 nM.
`c1cnc2nc(Oc3ccc4c(CN5CCC6CCCCC6C5)coc4c3)sc2c1` (stereo not shown) [Example 266, 2-[6-(Thiazolo[4,5-b]pyridin-2-yloxy)-benzofuran-3-ylmethyl]-decahydro-isoquinoline formate]: the values for the IC50 in assay [1] and in assay [2] were 100 nM and 2 nM, respectively.
For `COC(=O)CC1CCN(Cc2c[nH]c3cc(Oc4nc5ccccc5s4)ccc23)CC1` [Example 141, {1-[6-(Benzothiazol-2-yloxy)-1H-indol-3-ylmethyl]-piperidin-4-yl}-acetic acid methyl ester], the values for the half-maximal inhibitory concentration (IC50) in assay [1] and in assay [2] were 640 nM and 20 nM, respectively.
`O=C(c1coc2cc(Oc3nc4ncccc4s3)ccc12)N1CCC(F)CC1` [Example 376, (4-Fluoro-piperidin-1-yl)-[6-(thiazolo[4,5-b]pyridin-2-yloxy)-benzofuran-3-yl]-methanone]: the IC50 in assay [1] was determined as 85 nM; in assay [2], 13 nM.
On the same counts, the results for `CC(=O)NC1CCN(Cc2c[nH]c3cc(Oc4nc5ccccc5s4)ccc23)CC1` [Example 53, N-{1-[6-(Benzothiazol-2-yloxy)-1H-indol-3-ylmethyl]-piperidin-4-yl}-acetamide] are 204 nM and 8 nM.
On the same counts, the results for `O=C(c1ccno1)N1C[C@@H]2C[C@H]1CN2Cc1coc2cc(Oc3nc4ncccc4s3)ccc12` [Example 358, (1S,4S)-Isoxazol-5-yl-{5-[6-(thiazolo[4,5-b]pyridin-2-yloxy)-benzofuran-3-ylmethyl]-2,5-diaza-bicyclo[2.2.1]hept-2-yl}-methanone] are 14 nM and 9 nM.
The matching figures for `CCCOC1CN(Cc2coc3cc(Oc4nc5ncccc5s4)ccc23)C1` [Example 314, 2-[3-(3-Propoxy-azetidin-1-ylmethyl)-benzofuran-6-yloxy]-thiazolo[4,5-b]pyridine]: 28 nM and 15 nM.
With `O=C(O)C1CCCN(Cc2c[nH]c3cc(Oc4nc5ccccc5s4)ccc23)C1` (stereo not shown) [Example 47, 1-[6-(Benzothiazol-2-yloxy)-1H-indol-3-ylmethyl]-piperidine-3-carboxylic acid], the IC50 in assay [1] was determined as 870 nM; in assay [2], 21 nM.
On the same counts, the results for `c1cnc2nc(Oc3ccc4c(CNC5CC5)coc4c3)sc2c1` [Example 297, Cyclopropyl-[6-(thiazolo[4,5-b]pyridin-2-yloxy)-benzofuran-3-ylmethyl]-amine] are 240 nM and 19 nM.
In the case of `CN(C)Cc1coc2cc(Oc3nc4ncccc4s3)ccc12` [Example 361, Dimethyl-[6-(thiazolo[4,5-b]pyridin-2-yloxy)-benzofuran-3-ylmethyl]-amine], the half-maximal inhibitory concentration (IC50) in assay [1] is 10 nM; in assay [2], 20 nM.
On the same counts, the results for `O=C(C1CC1)N1CCN(Cc2coc3cc(Oc4nc5ncccc5s4)ccc23)CC1` [Example 276, Cyclopropyl-{4-[6-(thiazolo[4,5-b]pyridin-2-yloxy)-benzofuran-3-ylmethyl]-piperazin-1-yl}-methanone formate] are 77 nM and 3 nM.
As for `c1csc(CN2CCN(Cc3coc4cc(Oc5nc6ncccc6s5)ccc34)CC2)c1` [Example 325, 2-[3-(4-Thiophen-2-ylmethyl-piperazin-1-ylmethyl)-benzofuran-6-yloxy]-thiazolo[4,5-b]pyridine], the IC50 in assay [1] was found to be 78 nM; in assay [2] it was 26 nM.
Regarding `CC(=O)NC1CCN(C(=O)c2coc3cc(Oc4nc5ncccc5s4)ccc23)CC1` [Example 368, N-{1-[6-(Thiazolo[4,5-b]pyridin-2-yloxy)-benzofuran-3-carbonyl]-piperidin-4-yl}-acetamide], the 50% inhibitory concentration (IC50) stood at 170 nM in assay [1] and 26 nM in assay [2].
Consider `O=C1CCCN1C1CCN(Cc2c[nH]c3cc(Oc4nc5ccccc5s4)ccc23)CC1` [Example 30, 1-{1-[6-(Benzothiazol-2-yloxy)-1H-indol-3-ylmethyl]-piperidin-4-yl}-pyrrolidin-2-one], for which the IC50 was determined as 143 nM in assay [1] and 11 nM in assay [2].
Take `O=C(c1coc2cc(Oc3nc4ncccc4s3)ccc12)N1CCC(C(=O)N2CCCCC2)CC1` [Example 384, [4-(Piperidine-1-carbonyl)-piperidin-1-yl]-[6-(thiazolo[4,5-b]pyridin-2-yloxy)-benzofuran-3-yl]-methanone]: the values for the half-maximal inhibitory concentration (IC50) in assay [1] and in assay [2] were 120 nM and 12 nM, respectively.
With `O=C1Cc2cc(F)ccc2N1Cc1coc2cc(Oc3nc4ncccc4s3)ccc12` [Example 403, 5-Fluoro-1-[6-(thiazolo[4,5-b]pyridin-2-yloxy)-benzofuran-3-ylmethyl]-1,3-dihydro-indol-2-one], the concentration for half-maximal inhibition (IC50) came to 690 nM in assay [1] and 47 nM in assay [2].
On the same counts, the results for `c1ccc(C2CCN(Cc3coc4cc(Oc5nc6ncccc6s5)ccc34)CC2)cc1` [Example 280, 2-[3-(4-Phenyl-piperidin-1-ylmethyl)-benzofuran-6-yloxy]-thiazolo[4,5-b]pyridine formate] are 130 nM and 10 nM.
On the same counts, the results for `c1cnc2nc(Oc3ccc4c(CN5CCCCC5)coc4c3)sc2c1` [Example 212, 2-(3-Piperidin-1-ylmethyl-benzofuran-6-yloxy)-thiazolo[4,5-b]pyridine] are 19 nM and 4 nM.
As to `CC(=O)N[C@H]1C[C@H]2CC[C@@H](C1)N2Cc1c[nH]c2cc(Oc3nc4ncccc4s3)ccc12` [Example 18, meso-endo-N-{8-[6-(Thiazolo[4,5-b]pyridin-2-yloxy)-1H-indol-3-ylmethyl]-8-aza-bicyclo[3.2.1]oct-3-yl}-acetamide], the IC50 in assay [1] was 301 nM; in assay [2] it was 1 nM.
The matching figures for `Cc1ccnc2nc(Oc3ccc4c(CN5CCOCC5)c[nH]c4c3)sc12` [Example 57, 7-Methyl-2-(3-morpholin-4-ylmethyl-1H-indol-6-yloxy)-thiazolo[4,5-b]pyridine]: 444 nM and 93 nM.
Take `CC(=O)N[C@H]1C[C@H]2CC[C@@H](C1)N2Cc1cc2cc(Oc3nc4ccccc4s3)ccc2o1` [Example 83, meso-endo-N-{8-[5-(Benzothiazol-2-yloxy)-benzofuran-2-ylmethyl]-8-aza-bicyclo[3.2.1]oct-3-yl}-acetamide formate]: the figures for the IC50 in assay [1] and in assay [2] were 119 nM and 70 nM, respectively.
On the same counts, the results for `Clc1ccc2sc3c(c2c1)CCN(Cc1c[nH]c2cc(Oc4nc5ncccc5s4)ccc12)C3` [Example 37, 6-Chloro-2-[6-(thiazolo[4,5-b]pyridin-2-yloxy)-1H-indol-3-ylmethyl]-1,2,3,4-tetrahydro-benzo[4,5]thieno[2,3-c]pyridine formate] are 310 nM and 8 nM.
The matching figures for `O=C(O)C1CCN(CCc2coc3cc(Oc4nc5ccccc5s4)ccc23)CC1` [Example 80, 1-{2-[6-(Benzothiazol-2-yloxy)-benzofuran-3-yl]-ethyl}-piperidine-4-carboxylic acid]: 350 nM and 48 nM.
On the same counts, the results for `CC(=O)N1[C@@H]2CC[C@H]1C[C@H](NCc1coc3cc(Oc4nc5ncccc5s4)ccc13)C2` [Example 333, meso-exo-1-(3-{[6-(Thiazolo[4,5-b]pyridin-2-yloxy)-benzofuran-3-ylmethyl]-amino}-8-aza-bicyclo[3.2.1]oct-8-yl)-ethanone formate] are 24 nM and 6 nM.

Broadly, the IC50 is the concentration needed to halve the response being measured.
